Assay results taken from patent US20260062412A1, “NITROGEN-CONTAINING HETEROCYCLIC COMPOUND HAVING MYT1 INHIBITORY ACTIVITY” (CHUGAI SEIYAKU KABUSHIKI KAISHA, priority 2023, published 2026).

Molecular target: MYT1 protein (Homo sapiens (Human), UniProt Q99640)
Assay: Test for binding to ATP binding site of MYT1 (Kinase Tracer 178 / Eu-Anti-GST antibody TR-FRET)
Conditions: ATP binding site of MYT1, 30 minutes at room temperature

Chain of MYT1 protein (Q99640 whole entry): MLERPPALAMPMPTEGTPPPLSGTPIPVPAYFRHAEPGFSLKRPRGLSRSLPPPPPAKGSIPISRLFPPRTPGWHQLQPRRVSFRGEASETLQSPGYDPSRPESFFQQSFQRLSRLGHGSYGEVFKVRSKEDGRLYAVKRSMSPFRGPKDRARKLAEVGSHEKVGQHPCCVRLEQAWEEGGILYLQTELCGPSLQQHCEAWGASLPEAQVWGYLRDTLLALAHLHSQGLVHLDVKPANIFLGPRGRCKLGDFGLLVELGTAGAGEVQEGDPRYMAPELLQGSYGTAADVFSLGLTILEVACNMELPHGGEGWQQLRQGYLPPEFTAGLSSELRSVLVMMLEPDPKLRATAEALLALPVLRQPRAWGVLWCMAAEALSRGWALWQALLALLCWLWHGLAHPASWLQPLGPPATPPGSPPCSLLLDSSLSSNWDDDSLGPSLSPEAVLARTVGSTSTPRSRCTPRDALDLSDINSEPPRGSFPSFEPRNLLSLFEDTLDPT

Going from `COCC(F)(F)COc1cc2c(-c3ccc(F)c4[nH]ncc34)c(N)c(=O)[nH]c2c2cccnc12` [Compound C26, 3-Amino-6-(2,2-difluoro-3-methoxypropoxy)-4-(7-fluoro-1H-indazol-4-yl)-1H-1,7-phenanthrolin-2-one] to `CC(C)(COc1cc2c(-c3ccc(F)c4[nH]ncc34)c(N)c(=O)[nH]c2c2cccnc12)C(F)(F)F` [Compound C59, 3-Amino-4-(7-fluoro-1H-indazol-4-yl)-6-(3,3,3-trifluoro-2,2-dimethylpropoxy)-1H-1,7-one], the IC50 rises from 2.3 nM to 5.3 nM (2.3-fold).

`C[C@@H](Oc1cc2c(-c3ccc(F)c4[nH]ncc34)c(N)c(=O)[nH]c2c2cccnc12)C(F)(F)F` [Compound C27, 3-Amino-4-(7-fluoro-1H-indazol-4-yl)-6-[(2R)-1,1,1-trifluoropropan-2-yl]oxy-1H-1,7-phenanthrolin-2-one] and `CC[C@H](C)Oc1cc2c(-c3ccc(F)c4[nH]ncc34)c(N)c(=O)[nH]c2c2cccnc12` [Compound C34, 3-Amino-6-[(2S)-butan-2-yl]oxy-4-(7-fluoro-1H-indazol-4-yl)-1H-1,7-phenanthrolin-2-one] are within 1.5-fold of each other in IC50: 4.4 nM for the first, 3.7 nM for the second.

Going from `Nc1c(-c2ccc(F)c3[nH]ncc23)c2cc(O[C@H]3C[C@@H](F)C3)c3ncccc3c2[nH]c1=O` [Compound C28, 3-Amino-4-(7-fluoro-1H-indazol-4-yl)-6-((1s,3s)-3-fluorocyclobutoxy)-1,7-phenanthrolin-2(1H)-one] to `Nc1c(-c2ccc(F)c3[nH]ncc23)c2cc(O[C@H]3C[C@H](F)C3)c3ncccc3c2[nH]c1=O` [Compound C42, 3-Amino-6-((1r,3r)-3-fluorocyclobutyl)oxy-4-(7-fluoro-1H-indazol-4-yl)-1H-1,7-phenanthrolin-2-one], the IC50 rises from 1.8 nM to 2.7 nM (1.5-fold).

First: CO[C@H]1C[C@@H](Oc2cc3c(-c4ccc(F)c5[nH]ncc45)c(N)c(=O)[nH]c3c3cccnc23)C1 [Compound C29, 3-Amino-4-(7-fluoro-1H-indazol-4-yl)-6-((1s,3s)-3-methoxycyclobutoxy)-1,7-phenanthrolin-2(1H)-one]
Second: CO[C@H]1C[C@H](Oc2cc3c(-c4ccc(F)c5[nH]ncc45)c(N)c(=O)[nH]c3c3cccnc23)C1 [Compound C30, 3-Amino-4-(7-fluoro-1H-indazol-4-yl)-6-((1r,3r)-3-methoxycyclobutoxy)-1,7-phenanthrolin-2(1H)-one]
The IC50 of the first is 1.8-fold lower: 3.3 nM for the first, 5.8 nM for the second.

`N#C[C@H]1C[C@H](Oc2cc3c(-c4ccc(F)c5[nH]ncc45)c(N)c(=O)[nH]c3c3cccnc23)C1` [Compound C31, (1r,3r)-3-[[3-Amino-4-(7-fluoro-1H-indazol-4-yl)-2-oxo-1H-1,7-phenanthrolin-6-yl]oxy]cyclobutane-1-carbonitrile] and `N#C[C@H]1C[C@@H](Oc2cc3c(-c4ccc(F)c5[nH]ncc45)c(N)c(=O)[nH]c3c3cccnc23)C1` [Compound C33, (1s,3s)-3-[[3-Amino-4-(7-fluoro-1H-indazol-4-yl)-2-oxo-1H-1,7-phenanthrolin-6-yl]oxy]cyclobutane-1-carbonitrile] are within 1.5-fold of each other in IC50: 4.3 nM for the first, 3.5 nM for the second.

Compared with `Nc1c(-c2ccc(F)c3[nH]ncc23)c2cc(OCCC(F)F)c3ncccc3c2[nH]c1=O` [Compound C32, 3-Amino-6-(3,3-difluoropropoxy)-4-(7-fluoro-1H-indazol-4-yl)-1H-1,7-phenanthrolin-2-one], `CCCOc1cc2c(-c3ccc(F)c4[nH]ncc34)c(N)c(=O)[nH]c2c2cccnc12` [Compound C60, 3-Amino-4-(7-fluoro-1H-indazol-4-yl)-6-propoxy-1H-1,7-phenanthrolin-2-one] is 4.1-fold lower in IC50: 3.5 nM for the first, 0.85 nM for the second.

`Nc1c(-c2ccc(F)c3[nH]ncc23)c2cc(OC[C@H]3CCCO3)c3ncccc3c2[nH]c1=O` [Compound C35, 3-Amino-4-(7-fluoro-1H-indazol-4-yl)-6-[[(2R)-oxolan-2-yl]methoxy]-1H-1,7-phenanthrolin-2-one] and `Nc1c(-c2ccc(F)c3[nH]ncc23)c2cc(OC[C@@H]3CCCO3)c3ncccc3c2[nH]c1=O` [Compound C37, 3-Amino-4-(7-fluoro-1H-indazol-4-yl)-6-[[(2S)-oxolan-2-yl]methoxy]-1H-1,7-phenanthrolin-2-one] are within 1.5-fold of each other in IC50: 4.4 nM for the first, 3.9 nM for the second.

Going from `Nc1c(-c2ccc(F)c3[nH]ncc23)c2cc(OCC3(F)CC3)c3ncccc3c2[nH]c1=O` [Compound C38, 3-Amino-6-[(1-fluorocyclopropyl)methoxy]-4-(7-fluoro-1H-indazol-4-yl)-1H-1,7-phenanthrolin-2-one] to `Nc1c(-c2ccc(F)c3[nH]ncc23)c2cc(OCC3(F)CCC3)c3ncccc3c2[nH]c1=O` [Compound C56, 3-Amino-6-[(1-fluorocyclobutyl)methoxy]-4-(7-fluoro-1H-indazol-4-yl)-1H-1,7-phenanthrolin-2-one], the IC50 falls from 5.7 nM to 1.7 nM (3.4-fold).

Going from `Nc1c(-c2ccc(F)c3[nH]ncc23)c2cc(OCC3CC(F)(F)C3)c3ncccc3c2[nH]c1=O` [Compound C39, 3-Amino-6-[(3,3-difluorocyclobutyl)methoxy]-4-(7-fluoro-1H-indazol-4-yl)-1H-1,7-phenanthrolin-2-one] to `CC1(COc2cc3c(-c4ccc(F)c5[nH]ncc45)c(N)c(=O)[nH]c3c3cccnc23)CC(F)(F)C1` [Compound C52, 3-Amino-6-[(3,3-difluoro-1-methylcyclobutyl)methoxy]-4-(7-fluoro-1H-indazol-4-yl)-1H-1,7-one], the IC50 falls from 6.5 nM to 2.6 nM (2.5-fold).

Going from `Nc1c(-c2ccc(F)c3[nH]ncc23)c2cc(OCC3(F)COC3)c3ncccc3c2[nH]c1=O` [Compound C40, 3-Amino-4-(7-fluoro-1H-indazol-4-yl)-6-[(3-fluorooxetan-3-yl)methoxy]-1H-1,7-phenanthrolin-2-one] to `Nc1c(-c2ccc(F)c3[nH]ncc23)c2cc(OCC34CC(C3)C4)c3ncccc3c2[nH]c1=O` [Compound C49, 3-Amino-6-(1-bicyclo[1.1.1]pentanylmethoxy)-4-(7-fluoro-1H-indazol-4-yl)-1H-1,7-phenanthrolin-2-one], the IC50 falls from 4 nM to 1.7 nM (2.4-fold).

Going from `Nc1c(-c2ccc(F)c3[nH]ncc23)c2cc(OC3CC4(COC4)C3)c3ncccc3c2[nH]c1=O` [Compound C41, 3-Amino-4-(7-fluoro-1H-indazol-4-yl)-6-(2-oxaspiro[3,3]heptan-6-yloxy)-1H-1,7-one] to `Nc1c(-c2ccc(F)c3[nH]ncc23)c2cc(O[C@@H]3CCCOC3)c3ncccc3c2[nH]c1=O` [Compound C46, 3-Amino-4-(7-fluoro-1H-indazol-4-yl)-6-[(3R)-oxan-3-yl]oxy-1H-1,7-phenanthrolin-2-one], the IC50 falls from 6.1 nM to 2.9 nM (2.1-fold). The second is the more potent here.

Going from `Nc1c(-c2ccc(F)c3[nH]ncc23)c2cc(OCCOC(F)(F)F)c3ncccc3c2[nH]c1=O` [Compound C43, 3-Amino-4-(7-fluoro-1H-indazol-4-yl)-6-[2-(trifluoromethoxy)ethoxy]-1H-1,7-phenanthrolin-2-one] to `Nc1c(-c2ccc(F)c3[nH]ncc23)c2cc(OCC3(C(F)(F)F)CC3)c3ncccc3c2[nH]c1=O` [Compound C44, 3-Amino-4-(7-fluoro-1H-indazol-4-yl)-6-[[1-(trifluoromethyl)cyclopropyl]methoxy]-1H-1,7-one], the IC50 falls from 19 nM to 5.1 nM (3.7-fold).

`CO[C@@H](C)COc1cc2c(-c3ccc(F)c4[nH]ncc34)c(N)c(=O)[nH]c2c2cccnc12` [Compound C45, 3-Amino-4-(7-fluoro-1H-indazol-4-yl)-6-[(2S)-2-methoxypropoxy]-1H-1,7-phenanthrolin-2-one] and `CO[C@H](C)COc1cc2c(-c3ccc(F)c4[nH]ncc34)c(N)c(=O)[nH]c2c2cccnc12` [Compound C50, 3-Amino-4-(7-fluoro-1H-indazol-4-yl)-6-[(2R)-2-methoxypropoxy]-1H-1,7-phenanthrolin-2-one] are within 1.5-fold of each other in IC50: 3.6 nM for the first, 4 nM for the second.

Going from `Nc1c(-c2ccc(F)c3[nH]ncc23)c2cc(OC3CCS(=O)(=O)CC3)c3ncccc3c2[nH]c1=O` [Compound C47, 3-Amino-6-(1,1-dioxothian-4-yl)oxy-4-(7-fluoro-1H-indazol-4-yl)-1H-1,7-phenanthrolin-2-one] to `Nc1c(-c2ccc(F)c3[nH]ncc23)c2cc(OC3CCC(F)(F)CC3)c3ncccc3c2[nH]c1=O` [Compound C48, 3-Amino-6-(4,4-difluorocyclohexyl)oxy-4-(7-fluoro-1H-indazol-4-yl)-1H-1,7-phenanthrolin-2-one], the IC50 rises from 4 nM to 10 nM (2.5-fold).

`Nc1c(-c2ccc(F)c3[nH]ncc23)c2cc(O[C@H]3CCCOC3)c3ncccc3c2[nH]c1=O` [Compound C51, 3-Amino-4-(7-fluoro-1H-indazol-4-yl)-6-[(3S)-oxan-3-yl]oxy-1H-1,7-phenanthrolin-2-one] and `Nc1c(-c2ccc(F)c3[nH]ncc23)c2cc(OC3CC(C(F)F)C3)c3ncccc3c2[nH]c1=O` (centres unmarked) [Compound C58, 3-Amino-6-[3-(difluoromethyl)cyclobutyl]oxy-4-(7-fluoro-1H-indazol-4-yl)-1H-1,7-phenanthrolin-2-one] are within 1.5-fold of each other in IC50: 1.7 nM for the first, 1.5 nM for the second.

Compared with `COC1(COc2cc3c(-c4ccc(F)c5[nH]ncc45)c(N)c(=O)[nH]c3c3cccnc23)CC1` [Compound C53, 3-Amino-4-(7-fluoro-1H-indazol-4-yl)-6-[(1-methoxycyclopropyl)methoxy]-1H-1,7-phenanthrolin-2-one], `N#CC1(COc2cc3c(-c4ccc(F)c5[nH]ncc45)c(N)c(=O)[nH]c3c3cccnc23)CC1` [Compound C54, 1-[[3-Amino-4-(7-fluoro-1H-indazol-4-yl)-2-oxo-1H-1,7-phenanthrolin-6-yl]oxymethyl]cyclopropane-1-carbonitrile] is 3-fold lower in IC50: 4.2 nM for the first, 1.4 nM for the second. The second is the more potent here.

Going from `N#CC1(COc2cc3c(-c4ccc(F)c5[nH]ncc45)c(N)c(=O)[nH]c3c3cccnc23)CCC1` [Compound C55, 1-[[3-Amino-4-(7-fluoro-1H-indazol-4-yl)-2-oxo-1H-1,7-phenanthrolin-6-yl]oxymethyl]cyclobutane-1-carbonitrile] to `C[C@@H](F)COc1cc2c(-c3ccc(F)c4[nH]ncc34)c(N)c(=O)[nH]c2c2cccnc12` [Compound C61, (R)-3-amino-4-(7-fluoro-1H-indazol-4-yl)-6-(2-fluoropropoxy)-1,7-phenanthrolin-2(1H)-one], the IC50 rises from 0.92 nM to 1.7 nM (1.8-fold).

For `Nc1c(-c2ccc(F)c3[nH]ncc23)c2cc(OC3CC(C(F)(F)F)C3)c3ncccc3c2[nH]c1=O` (centres unmarked) [Compound C57, 3-Amino-4-(7-fluoro-1H-indazol-4-yl)-6-[3-(trifluoromethyl)cyclobutyl]oxy-1H-1,7-one], the IC50 was 2.5 nM.
